Results taken from PubChem BioAssay AID1918945 (Molecular Pharmacology Branch, DTP, NCI, 2023).
Several values for one entry are separate records, joined by “and”; a condition that tells them apart may be missing. Identical values can stand only once.

Tested on: 883617-216-R-J1-PDC complex spheroid viability
Assay: Anticancer human tumor 883617-216-R-J1-PDC patient-derived bladder carcinoma cell line growth inhibition
Conditions: for viability, T/C: stronger effect = lower value
Procedure, shortened: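 Complex spheroids of tumor cells with HUVEC and human MSCs, exposed to iadademstat combined with other agents. Each agent tested in half-log steps from near clinical Cmax (else 10 microM top), DMSO ≤0.25%.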

[1] = curve of first compound, second compound 0.1 µM
[2] = curve of first compound, second compound 0.316 µM
[3] = curve of first compound, second compound 1 µM
[4] = curve of first compound, second compound 3.16 µM
[5] = curve of first compound, second compound 10 µM
[6] = second compound 0.1 µM, first compound 0.00949 µM
[7] = second compound 0.1 µM, first compound 0.03 µM
[8] = second compound 0.1 µM, first compound 0.0949 µM
[9] = second compound 0.1 µM, first compound 0.3 µM
[10] = second compound 0.1 µM, first compound 0.949 µM
[11] = second compound 0.1 µM, first compound 3 µM
[12] = second compound 0.316 µM, first compound 0.00949 µM
[13] = second compound 0.316 µM, first compound 0.03 µM
[14] = second compound 0.316 µM, first compound 0.0949 µM
[15] = second compound 0.316 µM, first compound 0.3 µM
[16] = second compound 0.316 µM, first compound 0.949 µM
[17] = second compound 0.316 µM, first compound 3 µM
[18] = second compound 1 µM, first compound 0.00949 µM
[19] = second compound 1 µM, first compound 0.03 µM
[20] = second compound 1 µM, first compound 0.0949 µM
[21] = second compound 1 µM, first compound 0.3 µM
[22] = second compound 1 µM, first compound 0.949 µM
[23] = second compound 1 µM, first compound 3 µM
[24] = second compound 3.16 µM, first compound 0.00949 µM
[25] = second compound 3.16 µM, first compound 0.03 µM
[26] = second compound 3.16 µM, first compound 0.0949 µM
[27] = second compound 3.16 µM, first compound 0.3 µM
[28] = second compound 3.16 µM, first compound 0.949 µM
[29] = second compound 3.16 µM, first compound 3 µM
[30] = second compound 10 µM, first compound 0.00949 µM
[31] = second compound 10 µM, first compound 0.03 µM
[32] = second compound 10 µM, first compound 0.0949 µM
[33] = second compound 10 µM, first compound 0.3 µM
[34] = second compound 10 µM, first compound 0.949 µM
[35] = second compound 10 µM, first compound 3 µM
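Note: exposure lasted seven days after three days of spheroid growth.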
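Throughout, for viability, T/C: 100% = DMSO vehicle control luminescence.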

Row | Compound | IC50 [1] [nM] | IC50 [2] [nM] | IC50 [3] [nM] | IC50 [4] [nM] | IC50 [5] [nM] | viability, T/C [6] [%] | viability, T/C [7] [%] | viability, T/C [8] [%] | viability, T/C [9] [%] | viability, T/C [10] [%] | viability, T/C [11] [%] | viability, T/C [12] [%] | viability, T/C [13] [%] | viability, T/C [14] [%] | viability, T/C [15] [%] | viability, T/C [16] [%] | viability, T/C [17] [%] | viability, T/C [18] [%] | viability, T/C [19] [%] | viability, T/C [20] [%] | other results
1 | NS(=O)(=O)OCC1CC(n2ccc3c(NC4CCc5ccccc54)ncnc32)CC1O (centres undefined) + NC1CC1c1ccc(-c2cccc(O)c2)cc1 | 221 | 230 | 219 | 202 | 155 | 123 | 144 | 112 | 27.5 | 10.8 | 8.35 | 124 | 150 | 127 | 26.7 | 12.9 | 8.2 | 135 | 159 | 111 | viability, T/C [21]: 28.3%; viability, T/C [22]: 13%; viability, T/C [23]: 10.2%; viability, T/C [24]: 122%; viability, T/C [25]: 157%; viability, T/C [26]: 94.5%; viability, T/C [27]: 29.7%; viability, T/C [28]: 10.5%; viability, T/C [29]: 9.87%; viability, T/C [30]: 126%; viability, T/C [31]: 139%; viability, T/C [32]: 71.8%; viability, T/C [33]: 27%; viability, T/C [34]: 12.9%; viability, T/C [35]: 9.23%
2 | CC1COCCN1c1cc(-c2ccnn2C)c2ccnc(-c3ccn[nH]3)c2n1 (centres undefined) |  |  |  |  |  |  |  |  |  |  |  |  |  |  |  |  |  |  |  |  | viability, T/C (compound 0.00316 µM): 83.2% and 50.8%; viability, T/C (compound 0.01 µM): 64.8% and 42.2%; viability, T/C (compound 0.0316 µM): 47% and 33.7%; viability, T/C (compound 0.1 µM): 35% and 27.4%; viability, T/C (compound 0.316 µM): 34.6% and 23.9%; viability, T/C (compound 1 µM): 26.3% and 21.2%; IC50 (curve of compound): 26.5 nM and 3.53 nM
3 | CC1(C)CCC(CN2CCN(c3ccc(C(=O)NS(=O)(=O)c4ccc(NCC5CCOCC5)c([N+](=O)[O-])c4)c(Oc4cnc5[nH]ccc5c4)c3)CC2)=C(c2ccc(Cl)cc2)C1 |  |  |  |  |  |  |  |  |  |  |  |  |  |  |  |  |  |  |  |  | viability, T/C (compound 0.0316 µM): 107% and 103%; viability, T/C (compound 0.1 µM): 111% and 102%; viability, T/C (compound 0.316 µM): 111% and 99%; viability, T/C (compound 1 µM): 109% and 106%; viability, T/C (compound 3.16 µM): 111% and 102%; viability, T/C (compound 10 µM): 34.5% and 27.7%; IC50 (curve of compound): 7890 nM and 7100 nM
4 | Nc1ccccc1NC(=O)c1ccc(CNC(=O)OCc2cccnc2)cc1 + NC1CCC(NC2CC2c2ccccc2)CC1 | 206 | 205 | 233 | 216 | 235 | 115 | 89.3 | 73.5 | 39.5 | 15.8 | 0.37 | 112 | 96.2 | 74.1 | 36.5 | 16.6 | 0.73 | 104 | 90.2 | 76.5 | viability, T/C [21]: 41.4%; viability, T/C [22]: 17.5%; viability, T/C [23]: 1.37%; viability, T/C [24]: 102%; viability, T/C [25]: 103%; viability, T/C [26]: 66.6%; viability, T/C [27]: 40.4%; viability, T/C [28]: 21.5%; viability, T/C [29]: 1.18%; viability, T/C [30]: 106%; viability, T/C [31]: 88%; viability, T/C [32]: 66.5%; viability, T/C [33]: 45.9%; viability, T/C [34]: 23.6%; viability, T/C [35]: 0.93%
5 | COc1cc(C2c3cc4c(cc3C(OC3OC5COC(C)OC5C(O)C3O)C3COC(=O)C23)OCO4)cc(OC)c1O (centres undefined) + NC1CC1c1ccc(-c2cccc(O)c2)cc1 | 163 | 156 | 92.8 | 76.5 | 58 | 99.3 | 73 | 56.1 | 43.9 | 35.4 | 31.6 | 103 | 79.6 | 55.6 | 41.9 | 39.8 | 34.9 | 106 | 81 | 48.8 | viability, T/C [21]: 38.8%; viability, T/C [22]: 41.3%; viability, T/C [23]: 31.4%; viability, T/C [24]: 90.6%; viability, T/C [25]: 67.7%; viability, T/C [26]: 43.7%; viability, T/C [27]: 37.7%; viability, T/C [28]: 33.5%; viability, T/C [29]: 27.9%; viability, T/C [30]: 82.4%; viability, T/C [31]: 59.5%; viability, T/C [32]: 37.4%; viability, T/C [33]: 44.5%; viability, T/C [34]: 31.9%; viability, T/C [35]: 28.5%
